Experiments:
UACC-257 = conditions: UACC-257, Melanoma
HCT-116 = format: cell-based; conditions: HCT-116, Colon
TK-10 = format: cell-based; conditions: TK-10, Renal
SK-MEL-28 = conditions: SK-MEL-28, Melanoma
MOLT-4 = conditions: MOLT-4, Leukemia
KM12 = conditions: KM12, Colon
A498 = conditions: A498, Renal
PC-3 = conditions: PC-3, Prostate
HCT-15 = conditions: HCT-15, Colon
SNB-75 = conditions: SNB-75, CNS
SF-539 = conditions: SF-539, CNS
MALME-3M = conditions: Melanoma
OVCAR-3 = conditions: OVCAR-3, Ovarian
MDA-MB-468 = conditions: MDA-MB-468, Breast
SF-268 = conditions: SF-268, CNS
IGROV1 = conditions: IGROV1, Ovarian
HCC-2998 = conditions: HCC-2998, Colon
U251 = conditions: U251, CNS
CAKI-1 = conditions: CAKI-1, Renal
[1] = read-out: 50% lethal concentration (LC50)
[2] = read-out: 50% lethal concentration (LC50), Breast
[3] = read-out: 50% lethal concentration (LC50), Leukemia

C=C1CCC2C3(C)COC(c4cn(-c5ccccc5)nc4-c4ccc(C)cc4)OC3CCC2(C)C1CC=C1C(=O)OCC1O (stereo not drawn) [1i]
GI50 (UACC-257): 1740 nM | Total growth inhibition (TGI) (UACC-257): 3.47 µM | GI50 (HCT-116): 3.91 µM | Total growth inhibition (TGI) (HCT-116): 1.52 µM | GI50 (ACHN; Renal): 1830 nM | Total growth inhibition (TGI) (ACHN; Renal): 3.5 µM | CC50 (ACHN; read-out: 50% lethal concentration (LC50), Renal): 6.67 µM | Total growth inhibition (TGI) (HOP-62; HOP-62, Non-Small Cell Lung): 4.44 µM | GI50 (HOP-62; HOP-62, Non-Small-Cell Lung): 2120 nM | CC50 (HOP-62; read-out: 50% lethal concentration (LC50), HOP-62, Non-Small Cell Lung): 9.27 µM | GI50 (TK-10): 1330 nM | GI50 (LOX IMVI; Melanoma): 1430 nM | Total growth inhibition (TGI) (LOX IMVI; Melanoma): 2.74 µM | CC50 (LOX IMVI; read-out: 50% lethal concentration (LC50), Melanoma): 5.25 µM | GI50 (SK-MEL-28): 1740 nM | Total growth inhibition (TGI) (SK-MEL-28): 3.33 µM | CC50 (SK-MEL-28; [1]): 6.39 µM | Total growth inhibition (TGI) (NCI-H522; NCI-H522, Non-Small Cell Lung): 3.46 µM | GI50 (NCI-H522; NCI-H522, Non-Small-Cell Lung): 1750 nM | CC50 (NCI-H522; read-out: 50% lethal concentration (LC50), NCI-H522, Non-Small Cell Lung): 6.86 µM | GI50 (MOLT-4): 2110 nM | Total growth inhibition (TGI) (MOLT-4): > 100 µM | CC50 (MOLT-4; [1]): > 100 µM | GI50 (KM12): 3.01 µM | Total growth inhibition (TGI) (KM12): 7.93 µM | GI50 (HS 578T; Breast): 1850 nM | Total growth inhibition (TGI) (HS 578T; Breast): 3.41 µM | CC50 (HS 578T; [2]): 6.28 µM | Total growth inhibition (TGI) (HOP-92; HOP-92, Non-Small Cell Lung): 3.14 µM | GI50 (HOP-92; HOP-92, Non-Small-Cell Lung): 1430 nM | CC50 (HOP-92; read-out: 50% lethal concentration (LC50), HOP-92, Non-Small Cell Lung): 6.88 µM | GI50 (A498): 4.03 µM | Total growth inhibition (TGI) (A498): 15.8 µM | CC50 (A498; [1]): 48.8 µM | GI50 (PC-3): 1920 nM | CC50 (PC-3; [1]): > 100 µM | GI50 (HCT-15): 1590 nM | Total growth inhibition (TGI) (HCT-15): 3.19 µM | CC50 (HCT-15; [1]): 6.38 µM | GI50 (SNB-75): 1710 nM | Total growth inhibition (TGI) (SNB-75): 2.99 µM | CC50 (SNB-75; [1]): 6.55 µM | GI50 (SF-539): 1790 nM | Total growth inhibition (TGI) (SF-539): 3.19 µM | CC50 (SF-539; [1]): 5.7 µM | GI50 (MALME-3M): 2460 nM | Total growth inhibition (TGI) (MALME-3M): 4.28 µM | GI50 (OVCAR-3): 1950 nM | Total growth inhibition (TGI) (OVCAR-3): 3.82 µM | CC50 (OVCAR-3; [1]): 7.49 µM | GI50 (MDA-MB-468): 1850 nM | Total growth inhibition (TGI) (MDA-MB-468): 3.45 µM | CC50 (MDA-MB-468; [1]): 6.43 µM | GI50 (SF-268): 2610 nM | Total growth inhibition (TGI) (SF-268): 7.58 µM | CC50 (SF-268; [1]): 55.4 µM | Total growth inhibition (TGI) (NCI-H460; NCI-H460, Non-Small Cell Lung): 3.56 µM | GI50 (NCI-H460; NCI-H460, Non-Small-Cell Lung): 1830 nM | CC50 (NCI-H460; read-out: 50% lethal concentration (LC50), NCI-H460, Non-Small Cell Lung): 6.91 µM | GI50 (IGROV1): 3.95 µM | Total growth inhibition (TGI) (IGROV1): 12.5 µM | CC50 (IGROV1; [1]): > 100 µM | GI50 (HCC-2998): 1630 nM | Total growth inhibition (TGI) (HCC-2998): 3.06 µM | GI50 (U251): 2610 nM | Total growth inhibition (TGI) (U251): 3.12 µM | GI50 (T-47D; Breast): 1140 nM | Total growth inhibition (TGI) (T-47D; Breast): 3.55 µM | CC50 (T-47D; [2]): > 100 µM | GI50 (CAKI-1): 1710 nM | Total growth inhibition (TGI) (CAKI-1): 3.37 µM | CC50 (CAKI-1; [1]): 6.64 µM | GI50 (MDA-MB-231; MDA-MB-231, Breast): 1700 nM | Total growth inhibition (TGI) (MDA-MB-231; MDA-MB-231/ATCC, Breast): 3.28 µM | CC50 (MDA-MB-231; read-out: 50% lethal concentration (LC50), MDA-MB-231/ATCC, Breast): 6.33 µM | Total growth inhibition (TGI) (EKVX; Non-Small Cell Lung): 4.96 µM | GI50 (EKVX; Non-Small-Cell Lung): 2130 nM | CC50 (EKVX; read-out: 50% lethal concentration (LC50), Non-Small Cell Lung): > 100 µM | GI50 (SR; Leukemia): 2740 nM | Total growth inhibition (TGI) (SR; Leukemia): > 100 µM | CC50 (SR; [3]): > 100 µM | GI50 (HL-60(TB); Leukemia): 2170 nM | Total growth inhibition (TGI) (HL-60(TB); Leukemia): > 100 µM | CC50 (HL-60(TB); [3]): > 100 µM

Reference: article PMC12298351, “Novel 3,19-(N-Phenyl-3-(4-fluorophenyl)-pyrazole) Acetal of Andrographolide Promotes Cell Cycle Arrest and Apoptosis in MDA-MB-231 Breast Cancer Cells” (Pharmaceuticals, 2025)
